Test results from patent US12492174B2, “Morpholine-3-carboxamide derivatives as prostaglandin E2 receptor 4 (EP4) agonists for the treatment of gastrointestinal and pulmonary diseases” (NXERA PHARMA UK LIMITED, priority 2022, dated 2025).

Legend:
[1] = molecular target: T1, human EP4 (Homo sapiens, UniProt P35408); assay: cAMP Gs functional assay (HTRF cAMP dynamic-2); type: cell-based; conditions: for Emax: HEK293, HEK293 cells transfected with EP4 Bacmam virus; for EC50: 30 mins at 37° C., −Log of the molarity (M), read-out: cAMP human EP4 pEC50 (converted)
T1 construct: expressed in transfected cells; host or cells: HEK293 cells transduced with EP4 BacMam virus
Procedure: Cloning, Baculovirus generation, large scale infection of HEK293 cells and membrane preparation: Human prostaglandin E2 receptor 4 (EP4) was cloned into pBacMam expression vector (GeneScript, UK). Transposition of EP4 DNA was performed using Invitrogen's Bac-to-Bac Baculovirus Expression Systems. P0 baculovirus was generated by transfecting SF9 Cells with bacmid DNA using Cellfectin II transfection reagent (ThermoFisher Scientific, UK). Following P0 generation P1 virus was then generated ready for large scale infection and membrane preparation. HEK293 cells were grown in DMEM (ThermoFisher Scientific, UK), supplemented with 10% heat inactivated fetal bovine serum (FBS). Cells were infected at a seeding density of 3.5 million cells/mL in 500 cm^3 flasks at 5% v/v EP4 Bacman. Expression was carried out over a 36 hr period at 37° C. with 5% CO2. The cells were removed using PBS and a cell scrapper. The cell culture was centrifuged at 2500 RPM for 10 mins at 4° C. The supernatant was then poured off and the pellet stored at −80° C. The pellet was defrosted and re-suspended in 15 mL of homogenising buffer (20 mM HEPES, 10 mM EDTA, pH 7.4). Then homogenised in mechanical homogeniser (VMR) for 10 seconds. The membrane was centrifuged in centrifuge tubes at 40,000 g for 15 mins at 4° C. The supernatant was poured away and re-suspended in 15 mL of homogenising buffer. Homogenised for 20 seconds. The membrane was centrifuged at 40,000 g for 45 mins at 4° C. The membrane was re-suspended in 3 mL of storage buffer (20 mM HEPES, 0.1 mM EDTA, pH 7.4) mixing well. The resulting membranes were then stored at −80° C.
cAMP Gs Functional Assay: cAMP production following EP4 receptor activation was determined using the Homogeneous Time-Resolved Fluorescence (HTRF) cAMP dynamic-2 assay (Cisbio, France). HEK293 cells were transfected using a 0.5% EP4 Bacmam virus for 36 hours, before dissociating the cells, and freezing at −150° C.
On the day of testing, increasing concentration of test compounds, alongside positive controls (10 uM PGE2 (Tocris, Abingdon, UK)) and negative control (DMSO (Sigma-Aldrich, UK) were added to a ProxiPlate-384 Plus, White 384-shallow well Mircoplate, (PerkinElmer, USA) using the ECHO dispense.
Cells were defrosted in a water bath and resuspended in DMEM supplemented with 10% FBS before centrifuging at 1200 RPM for 5 mins to form a pellet. The pellet was resuspended in assay buffer (DMEM+0.5 mM IBMX (Tocris, Abingdon, UK)) to 0.5×10^6 cells/mL. Cell suspension, for a final assay concentration of 5000 cell/well was added using the multidrop to the pre-dispensed assay plate. The plate was then incubated at 37° C. for 30 mins, with 5% CO2. The cAMP production was determined as manufacturer's instructions, before plates were read on a PheraStar fluorescence plate reader (BMG LabTech, Germany).
The pEC50 values (−Log of the molarity (M) in mol/liter) were calculated from the mid-point of the curve using dotmatics as shown in Table 3.

[2] = Unidirectional Caco-2 cell permeability assay; type: in vitro ADME; conditions: human, n=2, apical pH 6.5, basolateral pH 7.4, 1 hour, 37° C.
Procedure: Caco-2 cells (ECACC) were seeded onto 24-well Transwell plates at 2×10^5 cells per well and used in confluent monolayers after a 21 day culture at 37° C. under 5% CO2. Test compounds were incubated at 10 μM, 0.2% DMSO final, n=2 in assay buffer (Hanks balanced salt solution supplemented with 25 mM HEPES, adjusted to pH 6.5). Hanks balanced salt solution supplemented with 25 mM HEPES, adjusted to pH 7.4 (0.2% DMSO final) was used for the basolateral chamber (as receiver).
Incubations were performed at 37° C., with samples removed from both donor and acceptor chambers at T=0 and 1 hour and compound analysed by mass spectrometry (LC-MS/MS) including an analytical internal standard (0.5 μM carbamazepine).
Apparent permeability (Papp) values are shown in Table 4 and were determined from the relationship:
Where V is the volume of each Transwell compartment (apical 125 μL, basolateral 600 μL), and concentrations are the relative MS responses for compound (normalized to internal standard) in the donor chamber before incubation and acceptor chamber at the end of the incubation Area=area of cells exposed for drug transfer (0.33 cm^2).
Lucifer Yellow (LY) was added to the apical buffer in all wells to assess viability of the cell layer. As LY cannot freely permeate lipophilic barriers, a high degree of LY transport indicates poor integrity of the cell layer and wells with a LY Papp>10×10^−6 cm/s were rejected.
Compound recovery from the wells was determined from MS responses (normalized to internal standard) in donor and acceptor chambers at the end of incubation compared to response in the donor chamber pre-incubation.

[3] = HEK293 cells transfected with EP4 Bacmam virus

T1 sequence (P35408 whole entry): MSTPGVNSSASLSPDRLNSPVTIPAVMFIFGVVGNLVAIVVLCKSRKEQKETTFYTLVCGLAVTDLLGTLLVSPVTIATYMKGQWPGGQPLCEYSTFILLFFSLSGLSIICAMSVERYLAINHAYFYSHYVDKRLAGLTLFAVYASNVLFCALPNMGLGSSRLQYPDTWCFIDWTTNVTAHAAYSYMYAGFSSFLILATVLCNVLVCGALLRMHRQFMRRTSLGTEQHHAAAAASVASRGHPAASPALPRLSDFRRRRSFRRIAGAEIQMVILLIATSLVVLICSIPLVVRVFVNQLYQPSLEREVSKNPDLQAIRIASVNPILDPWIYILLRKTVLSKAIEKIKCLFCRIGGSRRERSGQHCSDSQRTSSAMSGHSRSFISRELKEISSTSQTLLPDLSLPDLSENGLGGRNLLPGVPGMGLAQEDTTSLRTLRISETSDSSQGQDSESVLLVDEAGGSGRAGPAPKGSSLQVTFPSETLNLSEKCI

| Structure (SMILES) | Emax ([1]; positive control 10 uM PGE2) | EC50 [1, 3] | Papp A→B at 1 h, 10 μM [2] | cAMP human EP4 Emax ([1]; HEK293 cells transfected with EP4 Bacmam virus, positive control 10 uM PGE2) |
| --- | --- | --- | --- | --- |
| Cc1cc(S(N)(=O)=O)ccc1-c1cccc(CN2CCOC[C@@H]2C(=O)N[C@@H](C)c2ccc(C(=O)O)cc2)c1 [Example 5, 4-((S)-1-((R)-4-((2′-methyl-4′-sulfamoyl-[1,1′-biphenyl]-3-yl)methyl)morpholine-3-carboxamido)ethyl)benzoic acid] | 100% | 7.94e-10 M | 0.59 ×10⁻⁶ cm/s | – |
| NC(=O)c1ccc(-c2cc(CN3CCOC[C@@H]3C(=O)NC3(c4ccc(C(=O)O)cc4)CC3)ccc2O)cc1 [Example 34, (R)-4-(1-(4-((4′-carbamoyl-6-hydroxy-[1,1′-biphenyl]-3-yl)methyl)morpholine-3-carboxamido)cyclopropyl)benzoic acid] | 97% | 3.98e-10 M | 0.39 ×10⁻⁶ cm/s | – |
| Cc1cc(OS(N)(=O)=O)ccc1-c1cc(O)cc(CN2CCOC[C@@H]2C(=O)N[C@@H](C)c2ccc(C(=O)O)cc2)c1 [Example 15, 4-[(1S)-1-[[(3R)-4-[[3-hydroxy-5-(2-methyl-4-sulfamoyloxy-phenyl)phenyl]methyl]morpholine-3-carbonyl]amino]ethyl]benzoic acid] | 98% | 3.98e-10 M | < 0.1 ×10⁻⁶ cm/s | – |
| Cc1cc(S(N)(=O)=O)ccc1-c1cc(CN2CCOC[C@@H]2C(=O)N[C@@H](C)c2ccc(C(=O)O)cc2)ccn1 [Example 16, 4-[(1S)-1-[[(3R)-4-[[2-(2-methyl-4-sulfamoyl-phenyl)-4-pyridyl]methyl]morpholine-3-carbonyl]amino]ethyl]benzoic acid] | 97% | 1.26e-07 M | < 0.1 ×10⁻⁶ cm/s | – |
| Cc1cc(C(N)=O)ccc1-c1cc(O)cc(CN2CCOC[C@@H]2C(=O)N[C@@H](C)c2ccc(-c3nnn[nH]3)cc2)c1 [Example 36, (R)—N-((S)-1-(4-(1H-tetrazol-5-yl)phenyl)ethyl)-4-((4′-carbamoyl-5-hydroxy-2′-methyl-[1,1′-biphenyl]-3-yl)methyl)morpholine-3-carboxamide] | 96% | 2.51e-10 M | 0.11 ×10⁻⁶ cm/s | – |
| Cc1cc(C(N)=O)ccc1-c1cc(CN2CCOC[C@@H]2C(=O)N[C@@H](C)c2ccc(C(=O)O)cc2)c[n+]([O-])c1 [Example 30, 3-(4-carbamoyl-2-methylphenyl)-5-(((R)-3-(((S)-1-(4-carboxyphenyl)ethyl)carbamoyl)morpholino)methyl)pyridine 1-oxide] | 93% | 1.58e-07 M | – | – |
| Cc1cc(S(N)(=O)=O)ccc1-c1cc(O)cc(CN2CCOC[C@@H]2C(=O)N[C@@H](C)c2ccc(C(=O)O)c(O)c2)c1 [Example 22, 2-hydroxy-4-((S)-1-((R)-4-((5-hydroxy-2′-methyl-4′-sulfamoyl-[1,1′-biphenyl]-3-yl)methyl)morpholine-3-carboxamido)ethyl)benzoic acid] | 99% | 2.51e-10 M | < 0.2 ×10⁻⁶ cm/s | – |
| Cc1cc(C(N)=O)ccc1-c1ccnc(CN2CCOC[C@@H]2C(=O)N[C@@H](C)c2ccc(C(=O)O)cc2)c1 [Example 4, 4-[(1S)-1-[[(3R)-4-[[4-(4-carbamoyl-2-methyl-phenyl)-2-pyridyl]methyl]morpholine-3-carbonyl]amino]ethyl]benzoic acid] | 95% | 6.31e-08 M | 0.5 ×10⁻⁶ cm/s | – |
| C[C@H](NC(=O)[C@H]1COCCN1Cc1ccc(O)c(-c2ccc(C(N)=O)cc2)c1)c1ccc(C(=O)O)cc1 [Example 23, 4-[(1S)-1-[[(3R)-4-[[3-(4-carbamoylphenyl)-4-hydroxy-phenyl]methyl]morpholine-3-carbonyl]amino]ethyl]benzoic acid] | 93% | 1e-08 M | 0.48 ×10⁻⁶ cm/s | – |
| Cc1cc(OS(N)(=O)=O)ccc1-c1cccc(CN2CCOC[C@@H]2C(=O)N[C@@H](C)c2ccc(C(=O)O)cc2)c1 [Example 20, 4-((S)-1-((R)-4-((2′-methyl-4′-(sulfamoyloxy)-[1,1′-biphenyl]-3-yl)methyl)morpholine-3-carboxamido)ethyl)benzoic acid] | 101% | 5.01e-10 M | – | – |
| C[C@H](NC(=O)[C@H]1COCCN1Cc1cccc(-c2ccc(S(N)(=O)=O)cc2O)c1)c1ccc(C(=O)O)cc1 [Example 29, 4-((S)-1-((R)-4-((2′-hydroxy-4′-sulfamoyl-[1,1′-biphenyl]-3-yl)methyl)morpholine-3-carboxamido)ethyl)benzoic acid] | 97% | – | – | – |
| Cc1cc(C(N)=O)ccc1-c1cccc(CN2CCOC[C@@H]2C(=O)N[C@@H](C)c2ccc(C(=O)O)cc2)n1 [Example 2, 4-[(1S)-1-[[(3R)-4-[[6-(4-carbamoyl-2-methyl-phenyl)-2-pyridyl]methyl]-morpholine-3-carbonyl]amino]ethyl]benzoic acid] | 89% | 1e-06 M | – | – |

The next lines start with the values.

| Emax ([1]; positive control 10 uM PGE2) | EC50 [1, 3] | Papp A→B at 1 h, 10 μM [2] | cAMP human EP4 Emax ([1]; HEK293 cells transfected with EP4 Bacmam virus, positive control 10 uM PGE2) | Structure (SMILES) |
| --- | --- | --- | --- | --- |
| 99% | 1e-08 M | < 0.1 ×10⁻⁶ cm/s | – | Cc1cc(C(N)=O)ccc1-c1cccc(CN2CCOC[C@@H]2C(=O)N[C@@H](C)c2ccc(C(=O)O)c(O)c2)c1 [Example 19, 4-((S)-1-((R)-4-((4′-carbamoyl-2′-methyl-[1,1′-biphenyl]-3-yl)methyl)morpholine-3-carboxamido)ethyl)-2-hydroxybenzoic acid] |
| 96% | 1.58e-07 M | < 0.1 ×10⁻⁶ cm/s | – | Cc1cc(C(N)=O)ccc1-c1cccc(CN2CCOC[C@@H]2C(=O)NCc2cc(F)c(C(=O)O)c(F)c2)c1 [Example 8, 4-[[[(3R)-4-[[3-(4-carbamoyl-2-methyl-phenyl)phenyl]methyl]morpholine-3-carbonyl]amino]methyl]-2,6-difluoro-benzoic acid] |
| 97% | – | – | – | Cc1cc(C(N)=O)ccc1-c1cccc(CN2CCOC[C@@H]2C(=O)NC(C)c2cc(F)c(C(=O)O)c(F)c2)c1 (single isomer, unassigned) [Example 26] |
| 100% | – | 0.23 ×10⁻⁶ cm/s | – | Cc1cc(C(N)=O)ccc1-c1cncc(CN2CCOC[C@@H]2C(=O)N[C@@H](C)c2ccc(C(=O)O)c(O)c2)c1 [Example 28, 4-((S)-1-((R)-4-((5-(4-carbamoyl-2-methylphenyl)pyridin-3-yl)methyl)morpholine-3-carboxamido)ethyl)-2-hydroxy benzoic acid] |
| 99% | 7.94e-11 M | 0.35 ×10⁻⁶ cm/s | – | Cc1cc(C(N)=O)ccc1-c1cc(O)cc(CN2CCOC[C@@H]2C(=O)N[C@H](C)c2ccc(C(=O)O)cc2)c1 [Example 39, 4-((R)-1-((R)-4-((4′-carbamoyl-5-hydroxy-2′-methyl-[1,1′-biphenyl]-3-yl)methyl)morpholine-3-carboxamido)ethyl)benzoic acid] |
| – | 2.51e-07 M | – | 95% | Cc1cc(C(N)=O)ccc1-c1cccc(CN2CCOC[C@@H]2C(=O)NC(C)c2cc(F)c(C(=O)O)c(F)c2)c1 (single isomer, unassigned) [Example 27] |
